Measurements as given in PMC10283052, “Intranasal delivery of mitochondrial protein humanin rescues cell death and promotes mitochondrial function in Parkinson's disease” (Theranostics, 2023).

Columns and labels:
[1] = tested on: SH-SY5Y cells; assay: HN-induced intracellular humanin expression, western blot, SH-SY5Y; type: cell-based, human; details: HN treatment 24 h, several doses, basal humanin undetectable
Experimental: The SH-SY5Y human neuroblastoma cell line and PC12 rat pheochromocytoma cell line were purchased from the Korean Cell Line Bank (Seoul, South Korea). Undifferentiated SH-SY5Y cells were grown in Dulbecco's modified Eagle's medium nutrient mixture F-12 (DMEM/F12; Thermo Fisher Scientific) supplemented with 10% FBS and 1% P/S. Undifferentiated PC12 cells were grown in DMEM (Thermo Fisher Scientific) supplemented with 5% FBS, 5% horse serum, and 1% P/S on poly-D-lysine (PDL, Sigma-Aldrich) plates.
For HN treatment of cells, HN stock solution was first incubated at 37 ℃ with mild stirring for 0.5 h. The solution was then added to the culture medium to achieve a desirable final concentration as described above.
(§1) Mouse brain tissue samples and cells were homogenized in radioimmunoprecipitation assay (RIPA) buffer (Cell Signaling, Danvers, MA, USA) in the presence of a protease and phosphatase inhibitor cocktail (Thermo Fisher Scientific). The samples were sonicated on ice, and the supernatant was collected after centrifugation at 4°C at 10,000 g for 5 min. The protein samples were loaded and separated using Tris-glycine SDS-PAGE. To detect the HN peptide, the proteins were separated into three layers of tricine SDS-PAGE, as previously described. […] The results were analyzed using the ImageJ densitometry system. […]

[2] = tested on: JNK, p38 MAPK, AKT, ERK; assay: Signaling kinase activation in striatum of MPTP mice, western blot; type: in vivo, mouse; details: MPTP PD mice, intranasal HN 0.1 and 5 mg/kg
Experimental: (§2) A mouse model of PD was generated using the neurotoxin MPTP-HCl (Sigma-Aldrich, St. Louis, MO, USA), as previously described. Seven- to eight-week-old male C57BL/6J mice were injected with MPTP (20 mg/kg/day) for five consecutive days for the subacute delivery of MPTP. The mice in the control group received the same volume of phosphate buffer saline (PBS).
(§3) For intranasal HN treatment, the synthetic HN peptide was delivered according to a procedure reported by Capsoni et al. The synthetic HN peptide was diluted in ddH2O to a concentration of 0.1 and 5 mg/kg for mice (total volume of 40 μL) at 37 ℃ with mild stirring. The mice were held firmly in one hand in a supine position with their head at 90°. Synthetic HN was administered in the form of 5-μL drops over 20 min in alternating nostrils every 3 min. After administration, the heads of the mice were held in the same position to prevent loss of the applied solution from the nares.
as §1, with “min.” for “min. The protein samples were loaded and separated using Tris-glycine SDS-PAGE. To detect the HN peptide, the proteins were separated into three layers of tricine SDS-PAGE, as previously described.”

[3] = tested on: SH-SY5Y cells; assay: Real-time qPCR of genes of mitochondrial function; type: cell-based, human; details: HN 20 μM, 24 h
Experimental: For real-time qPCR, total RNA was extracted using TRIzol reagent (Thermo Fisher Scientific). cDNA was synthesized using a cDNA synthesis kit (Bioneer Corporation), according to the manufacturer's protocol. The mRNA levels were analyzed in a LightCycler 96 (Roche, Basel, Switzerland) using SYBR Green I master mix and SensiFAST™ SYBR® No-ROX Kit (Bioline, Paris, France). B2M (beta-2-microglobulin) gene expression was used to normalize gene expression data. The primer sequences used in this experiment are in Table S2.

[4] = tested on: MPTP mouse model of PD; assay: MPTP mouse model of PD, intranasal HN; type: in vivo; details: intranasal HN 0.1 and 5 mg/kg
Experimental: as §2, §3
To stain the mouse brain tissue samples, transcardial perfusion was performed using PBS and 4% paraformaldehyde in PBS. The brain and trigeminal ganglia were removed, post-fixed using 4% paraformaldehyde in PBS, and stored in a 30% sucrose solution at 4 ℃ until they sank. Coronal sections were prepared (thickness: 10 µm) using a sliding microtome. After blocking with 5% BSA, the samples were incubated with the appropriate primary antibody as mentioned above. After incubation with the primary antibodies, the tissue samples were incubated with Alexa Fluor 594- or 488-conjugated antibodies (Thermo Fisher Scientific) for immunofluorescence or with secondary biotinylated anti-rabbit IgG (H+L) (Vector Laboratories, Burlingame, CA, USA) for immunohistochemistry. […] Mitochondrial network morphology was further assessed using the FIJI/ImageJ software as described previously.
Mouse brain tissue samples and cells were homogenized in radioimmunoprecipitation assay (RIPA) buffer (Cell Signaling, Danvers, MA, USA) in the presence of a protease and phosphatase inhibitor cocktail (Thermo Fisher Scientific). […] The results were analyzed using the ImageJ densitometry system. […]

humanin (MAPRGFSCLLLLTSEIDLPVKRRA; Humanin; UniProt Q8IVG9 1-24, looked up) [HN, mitochondria-derived peptide encoded by the mitochondrial genome, synthesized by Fmoc-based SPPS at GL Biochem]
intracellular humanin expression [1]: induced its intracellular expression in a dose-dependent manner
activation of JNK and p38 MAPK in striatum [2]: inhibited the activation of JNK and p38 MAPK
activation of AKT and ERK in brain tissue ([2]; dose-dependent): promoted the activation of AKT and ERK
transcript levels of mitochondrial biogenesis (PGC-1α, NRF1, ESRRA) and oxidative phosphorylation (SDHA, ATP5F1A, ATP5F1D) genes [3]: significant increase
expression of fatty acid metabolism and TCA cycle genes ([3]; ACC2, ACLY, FASN, IDH3A): a significant alteration was not observed
motor function, pole test ([4]; MPTP 20 mg/kg/day for 5 days): steady motor improvements in a dose-dependent manner
TH expression, dopaminergic neurons of substantia nigra pars compacta ([4]; dose-dependent, TH staining, stereology): significantly restored TH expression
TH protein in striatum lysates, western blot ([4]; three independent blots): confirmed the impact of intranasal delivery of HN on protecting TH^+ dopaminergic neurons
